From patent publication US11807620B2, “Quinazolinone compounds and related compounds” (PLEXIUM, INC., priority 2020, dated 2023)

Key:
[1] = target: T1, IKZF3 (Aiolos) (Homo sapiens, UniProt Q96SW2+Q9UKT9); experiment: Stable cell line fluorescent reporter degradation assay, IKZF3; type: cell-based; conditions: 10 micromolar, HEK 293T IKZF3-mNeonGreen reporter cells, 24 hour incubation, calculated visually from the curves
T1 construct: mScarlet (C, cleaved yes); expressed in transfected cells
Description: (§1) Polycistronic plasmids were constructed for the mammalian expression of fluorescent reporter fusions of human transcription factors IKZF1 (Ikaros) and IKZF3 (Aiolos). The respective protein sequences had their C-terminal end joined to a GGGGS linker repeated three times followed by mNeonGreen, P2A sequence, and mScarlet. IKZF1 expression was driven by a CMV promoter while IKZF3 was EF1α promoter driven. The plasmids contained the HygR resistance gene for positive selection of cells with genomic integration of the reporter constructs. The plasmids were transfected using cationic lipid reagents into adherent HEK 293T cells and stable integrants were selected by treatment with 200 ug/mL hygromycin B. Clonal populations were obtained from the population of stable integrants either by limiting dilution or fluorescence activated cell sorting. The clonal stable cell lines were maintained under constant 200 ug/mL hygromycin B selection while being passaged for use in the degradation assays. The fluorescence intensity of the IKZF1/2/3-mNeonGreen (FITC channel) and mScarlet (PE channel) reporters were routinely analyzed by flow cytometry to confirm consistent expression levels between experiments.
(§2) Representative compounds were evaluated for their ability to degrade IKZF1 and IKZF3 in the following assay.
(§3) The IKZF1/IKZF3 degradation assays were carried out by harvesting the HEK 293T reporter cell lines and resuspending the cells in media formulated for reduced background fluorescence. The respective cell lines were seeded at a density of 4,000 cells/well into black-walled 384-well optical grade assay plates pre-coated by the manufacturer with PDL. The cells were incubated overnight to allow for attachment to the assay plate (37° C. with humidified air and 5% CO2 for all incubations). Dilutions of the compounds were prepared in dimethyl sulfoxide (DMSO) from 10 mM compound stock solutions in DMSO. The assay plates were treated with appropriate concentrations of the compounds by dispensing the DMSO dilutions in quadruplicate wells with an upper limit of 0.5% final DMSO.
(§4) After a 24 hour incubation with the compounds, the assay plates were imaged on an ImageXpress Pico microscopy system (cells maintained at 37° C. during imaging) to obtain the fluorescent readouts. The assay plates were imaged in the FITC and TRITC channels to obtain the mNeonGreen fluorescence intensity (reporter degradation data) and mScarlet fluorescence intensity (for cell segmentation), respectively. 293T-IKZF1 and 293T-IKZF3 reporter cell lines were imaged with exposures of 500 milliseconds (ms) for both FITC and TRITC channels. The resulting data was analyzed with Cell Reporter Xpress software using the 2-channel cell scoring analysis with a “percent positive” readout. The TRITC channel was selected for the “nuclei” segmentation with a threshold of 20 while the FITC channel was selected for the “Marker 1” segmentation and a threshold of 100 for the IKZF1 and IKZF3 reporter lines. The minimum segmentation width was set to 6 micrometers and the maximum segmentation width was set to 15 micrometers for all cell lines.
(§5) The percent degradation amounts were calculated visually from the curves generated at a concentration of 10 micromolar.

[2] = target: T2, cereblon (NanoLuc-CRBN) (Homo sapiens, UniProt Q96SW2); experiment: NanoBRET CRBN Cellular Target Engagement Assay; type: binding; conditions: compound tested at 10 μM, HEK293T cells transfected with NanoLuc-CRBN, 2 hr incubation; for remaining activity at 10 µM: lower = higher affinity, read-out: % tracer bound At the end of assay; for inhibition at 10 µM: read-out: % tracer removed From CBLN
T2 construct: host or cells: HEK293T
Description: The following example measures the extent to which a test compound of this invention binds to cereblon. In this example, a commercially available cereblon binding test kit (Promega Corporation, Madison, Wis., USA) was used but adapted to a 384 well format.
The kit comprises a tracer that binds to cereblon to form a tracer-cereblon complex. This complex is reversible. Upon addition of the test compound, competition between the tracer and the test compound for the binding site(s) on cereblon occurs. The extent of tracer release from cereblon correlates to the affinity of test compound to bind to cereblon. The higher the affinity, the more tracer is released from cereblon.
The assay is a homogenous cell-based assay that used bioluminescence resonance energy transfer (BRET) to measure cereblon target compound binding which causes loss of BRET. Lower BRET values correlate to higher loss of tracer bound to cereblon and, accordingly, higher the levels of target compound binding to cereblon.
The specifics of the assay include HEK293T cells were transfected with a NanoLuc-CRBN expression plasmid using Fugene as described. Approximately 24 hr later, transfected cells were washed with 1× Phosphate Buffered Saline (PBS) and harvested using trypsin. Cells were resuspended in Opti-MEM (available from Thermo Fisher Scientific) at a concentration of 2×10^5 cells/mL. A ratio of 1 part 100× Tracer to 4 parts NanoBRET Tracer Dilution Buffer was used to make a 20× Tracer stock. Next, 40 μl cells per well containing 1× tracer was dispensed into 384 well white tissue culture treated plates. Compounds were then dispensed using a D330e Digital Dispenser (Tecan Trading AG) and plates were allowed to incubate for 2 hr at 37° C., 5% CO2. Immediately prior to BRET measurements, a 3× Complete NanoBret Nano-Glo Substrate stock in Opti-MEM was prepared and 20 μl per well of substrate was subsequently added to the assay plates. Following a 2-3 minute incubation at room temperature, donor (450 nm) and acceptor (610 nm) emission values were read on a CLARIOStar multimode plate reader (BMG) in luminescence mode. Data were converted to milliBRET units by dividing acceptor emission values by donor emission and multiplying by 1000. […]

[3] = target: T3, IKZF1 (Ikaros) (Homo sapiens, UniProt Q13422+Q96SW2); experiment: Stable cell line fluorescent reporter degradation assay, IKZF1; type: cell-based; conditions: 10 micromolar, HEK 293T IKZF1-mNeonGreen reporter cells, 24 hour incubation, calculated visually from the curves
T3 construct: mScarlet (C, cleaved yes); expressed in transfected cells
Description: as §1, §2, §3, §4, §5

T3 sequence (Q13422 whole entry): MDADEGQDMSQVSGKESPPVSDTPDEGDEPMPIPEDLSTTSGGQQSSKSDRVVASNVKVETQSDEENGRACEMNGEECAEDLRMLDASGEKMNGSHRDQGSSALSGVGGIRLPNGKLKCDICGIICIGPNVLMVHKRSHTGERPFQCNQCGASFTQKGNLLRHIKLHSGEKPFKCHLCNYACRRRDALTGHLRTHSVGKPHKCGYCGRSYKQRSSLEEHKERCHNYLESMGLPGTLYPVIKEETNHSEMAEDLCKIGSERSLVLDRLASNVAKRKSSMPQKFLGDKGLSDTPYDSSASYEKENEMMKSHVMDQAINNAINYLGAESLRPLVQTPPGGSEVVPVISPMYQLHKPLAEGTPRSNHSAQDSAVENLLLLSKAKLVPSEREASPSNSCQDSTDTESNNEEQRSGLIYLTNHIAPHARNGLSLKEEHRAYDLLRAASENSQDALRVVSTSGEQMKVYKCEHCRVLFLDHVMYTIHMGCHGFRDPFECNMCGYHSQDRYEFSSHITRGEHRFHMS
T3 sequence (Q96SW2 whole entry): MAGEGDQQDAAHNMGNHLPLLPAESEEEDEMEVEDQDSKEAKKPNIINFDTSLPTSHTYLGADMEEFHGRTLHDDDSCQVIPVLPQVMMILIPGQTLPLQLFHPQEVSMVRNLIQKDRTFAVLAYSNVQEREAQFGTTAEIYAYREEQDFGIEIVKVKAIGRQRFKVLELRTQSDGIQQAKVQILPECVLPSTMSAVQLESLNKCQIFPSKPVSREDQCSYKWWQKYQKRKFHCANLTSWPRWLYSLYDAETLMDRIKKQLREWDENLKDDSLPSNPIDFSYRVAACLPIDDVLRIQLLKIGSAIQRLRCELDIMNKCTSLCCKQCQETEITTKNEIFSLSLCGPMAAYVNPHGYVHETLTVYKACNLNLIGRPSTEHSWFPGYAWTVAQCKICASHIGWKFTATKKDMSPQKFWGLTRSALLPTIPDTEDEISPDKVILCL
T3 sequence (Q16531 whole entry partner): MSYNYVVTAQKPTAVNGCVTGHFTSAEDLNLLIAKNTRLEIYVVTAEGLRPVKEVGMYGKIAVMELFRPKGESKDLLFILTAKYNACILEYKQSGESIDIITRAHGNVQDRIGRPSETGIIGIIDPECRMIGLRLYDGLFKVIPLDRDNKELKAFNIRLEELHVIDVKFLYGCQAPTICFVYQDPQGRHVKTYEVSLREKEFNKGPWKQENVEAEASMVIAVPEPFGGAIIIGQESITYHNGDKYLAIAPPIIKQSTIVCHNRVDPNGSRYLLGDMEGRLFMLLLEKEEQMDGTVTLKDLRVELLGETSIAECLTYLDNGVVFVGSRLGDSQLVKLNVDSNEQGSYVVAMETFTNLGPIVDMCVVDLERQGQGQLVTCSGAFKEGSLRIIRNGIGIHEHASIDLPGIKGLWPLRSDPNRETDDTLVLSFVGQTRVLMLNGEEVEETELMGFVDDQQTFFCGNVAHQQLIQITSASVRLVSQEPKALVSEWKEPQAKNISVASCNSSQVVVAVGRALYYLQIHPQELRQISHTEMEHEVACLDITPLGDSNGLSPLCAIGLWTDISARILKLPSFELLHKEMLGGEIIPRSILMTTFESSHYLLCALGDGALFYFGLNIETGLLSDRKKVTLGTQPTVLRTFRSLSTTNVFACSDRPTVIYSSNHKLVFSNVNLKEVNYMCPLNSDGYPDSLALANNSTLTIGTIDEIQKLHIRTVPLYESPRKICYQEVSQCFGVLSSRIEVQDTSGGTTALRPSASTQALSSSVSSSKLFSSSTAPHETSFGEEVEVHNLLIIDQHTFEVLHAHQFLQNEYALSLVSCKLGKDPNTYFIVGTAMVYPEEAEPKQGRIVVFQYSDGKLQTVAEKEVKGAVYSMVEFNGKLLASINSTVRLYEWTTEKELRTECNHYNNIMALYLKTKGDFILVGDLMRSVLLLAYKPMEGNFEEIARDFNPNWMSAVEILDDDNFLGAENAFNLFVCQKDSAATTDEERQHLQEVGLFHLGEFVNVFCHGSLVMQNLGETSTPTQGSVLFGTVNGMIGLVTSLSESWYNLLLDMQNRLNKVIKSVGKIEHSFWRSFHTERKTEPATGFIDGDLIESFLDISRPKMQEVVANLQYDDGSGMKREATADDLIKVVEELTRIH
T2 sequence (Q96SW2 whole entry): as the sequence (Q96SW2 whole entry) above
T1 sequence (Q9UKT9 whole entry): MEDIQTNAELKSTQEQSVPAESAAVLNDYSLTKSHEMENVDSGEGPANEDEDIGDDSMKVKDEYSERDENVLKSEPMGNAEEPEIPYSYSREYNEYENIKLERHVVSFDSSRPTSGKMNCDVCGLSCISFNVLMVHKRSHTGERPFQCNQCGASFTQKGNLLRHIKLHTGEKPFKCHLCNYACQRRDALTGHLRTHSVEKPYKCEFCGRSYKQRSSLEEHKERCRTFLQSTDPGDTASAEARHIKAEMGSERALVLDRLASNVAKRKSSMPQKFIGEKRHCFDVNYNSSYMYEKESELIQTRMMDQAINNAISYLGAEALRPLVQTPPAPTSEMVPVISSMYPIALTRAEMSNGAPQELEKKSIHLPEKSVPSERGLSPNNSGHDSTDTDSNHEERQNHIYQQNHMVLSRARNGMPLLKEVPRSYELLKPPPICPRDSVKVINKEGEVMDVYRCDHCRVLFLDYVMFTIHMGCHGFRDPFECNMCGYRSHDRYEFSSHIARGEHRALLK
T1 sequence (Q96SW2 whole entry): as the sequence (Q96SW2 whole entry) above
T1 sequence (Q16531 whole entry partner): as the sequence (Q16531 whole entry partner) above

remaining activity at 10 µM [2] | inhibition at 10 µM [2] | Dmax at 10 µM ([1]; HEK-293T, 24 h) | Dmax at 10 µM ([3]; HEK-293T, 24 h) | Structure (SMILES) | Dmax at 10 µM [1] | Dmax at 10 µM [3]
40.9% | 59.1% | 95.8% | 92.4% | Cc1nc2cccc(NCc3ccc(F)cc3)c2c(=O)n1C1CCC(=O)NC1=O (centres unmarked) [Example 4, 3-(5-((4-fluorobenzyl)amino)-2-methyl-4-oxoquinazolin-3(4H)-yl)piperidine-2,6-dione] | – | –
23.8% | 76.2% | 93.6% | 89.7% | Cc1nc2cccc(NCc3cccc(F)c3)c2c(=O)n1C1CCC(=O)NC1=O (centres unmarked) [Example 5, 3-(5-((3-fluorobenzyl)amino)-2-methyl-4-oxoquinazolin-3(4H)-yl)piperidine-2,6-dione] | – | –
22.9% | 77.1% | 94.3% | 76.8% | Cc1cccc(CNc2cccc3nc(C)n(C4CCC(=O)NC4=O)c(=O)c23)c1 (centres unmarked) [Example 7, 3-(2-methyl-5-((3-methylbenzyl)amino)-4-oxoquinazolin-3(4H)-yl)piperidine-2,6-dione] | – | –
– | – | 87.4% | 88.2% | O=C1CCC(n2nnc3cccc(NCc4ccc(CN5CCOCC5)cc4)c3c2=O)C(=O)N1 (centres unmarked) [compound 36, 3-(5-((4-(morpholinomethyl)benzyl)amino)-4-oxobenzo[d][1,2,3]triazin-3(4H)-yl)piperidine-2,6-dione] | – | –
– | – | 96.3% | 97.1% | Cc1nc2cccc(NCc3ccc(CN4CC(N5CCOCC5)C4)cc3F)c2c(=O)n1C1CCC(=O)NC1=O (centres unmarked) [compound 91, 3-(5-((2-fluoro-4-((3-morpholinoazetidin-1-yl)methyl)benzyl)amino)-2-methyl-4-oxoquinazolin-3(4H)-yl)piperidine-2,6-dione] | – | –
– | – | 92.4% | 78.4% | O=C1CCC(n2cnc3cccc(NCc4ccc(CN5CC(N6CCOCC6)C5)cc4F)c3c2=O)C(=O)N1 (centres unmarked) [compound 101, 3-(5-((2-fluoro-4-((3-morpholinoazetidin-1-yl)methyl)benzyl)amino)-4-oxoquinazolin-3(4H)-yl)piperidine-2,6-dione] | – | –

Structure (SMILES) | remaining activity at 10 µM [2] | inhibition at 10 µM [2] | Dmax at 10 µM ([1]; HEK-293T, 24 h) | Dmax at 10 µM ([3]; HEK-293T, 24 h) | Dmax at 10 µM [1] | Dmax at 10 µM [3]
COc1ccc(CNc2cccc3nc(C)n(C4CCC(=O)NC4=O)c(=O)c23)cc1 (centres unmarked) [Example 1, 3-(5-((4-methoxybenzyl)amino)-2-methyl-4-oxoquinazolin-3(4H)-yl)piperidine-2,6-dione] | 47.3% | 52.7% | – | – | 91.1% | 89.1%
Cc1nc2cccc(NCc3ccc(CN4CCN(c5ccc(C#N)cc5F)CC4)cc3)c2c(=O)n1C1CCC(=O)NC1=O (centres unmarked) [Example 34, 4-(4-(4-(((3-(2,6-dioxopiperidin-3-yl)-2-methyl-4-oxo-3,4-dihydroquinazolin-5-yl)amino)methyl)benzyl)piperazin-1-yl)-3-fluorobenzonitrile] | 27.4% | 72.6% | – | – | 93.2% | 93.1%
